# Measurements: patent publication US12692269B2, “Therapeutic compounds” (Genentech, Inc., priority 2019, dated 2026)
# pEC50: −log10 of the molar value.
# Columns and labels:
# Assay type in all cases: binding
# [1] = target: TEAD2 TAZ (amino acids 13-57) (Homo sapiens, UniProt Q15562); assay: TEAD2-TAZ HTRF (TR-FRET) protein-protein interaction assay; conditions: for TEAD2 TAZ HTRF combined: Max % Inhibition: TEAD2, TAZ peptide; for pEC50: TEAD2-TAZ HTRF, TR-FRET 665 nm/615 nm, read-out: TEAD2 TAZ HTRF combined: EC50
# TEAD2 TAZ (amino acids 13-57), sequence (Q15562 217-447): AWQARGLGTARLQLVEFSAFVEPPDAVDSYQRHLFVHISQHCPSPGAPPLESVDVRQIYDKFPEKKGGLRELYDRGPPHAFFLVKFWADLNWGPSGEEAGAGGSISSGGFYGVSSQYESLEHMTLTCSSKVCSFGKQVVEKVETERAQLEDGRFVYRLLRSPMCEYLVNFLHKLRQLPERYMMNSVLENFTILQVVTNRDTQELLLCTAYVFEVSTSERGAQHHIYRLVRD
# How it was run: (§1)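 Compounds were first allowed 30 min to bind Eu-antibody-tagged His-TEAD (YAP-binding domain, aa 217-447). Biotinylated YAP 50-100 or TAZ 13-57 peptide complexed with streptavidin-XL665 was then added for 60 min at room temperature, and loss of TR-FRET signal gave IC50 or EC50 values.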
# [2] = target: TEAD4 TAZ (amino acids 13-57) (Homo sapiens, UniProt Q15561); assay: TEAD4-TAZ HTRF (TR-FRET) protein-protein interaction assay; conditions: for TEAD4 TAZ HTRF combined: Max % Inhibition: TEAD4, TAZ peptide; for pEC50: TEAD4-TAZ HTRF, TR-FRET 665 nm/615 nm, read-out: TEAD4 TAZ HTRF combined: EC50
# TEAD4 TAZ (amino acids 13-57), sequence (Q15561 217-434 limits assumed): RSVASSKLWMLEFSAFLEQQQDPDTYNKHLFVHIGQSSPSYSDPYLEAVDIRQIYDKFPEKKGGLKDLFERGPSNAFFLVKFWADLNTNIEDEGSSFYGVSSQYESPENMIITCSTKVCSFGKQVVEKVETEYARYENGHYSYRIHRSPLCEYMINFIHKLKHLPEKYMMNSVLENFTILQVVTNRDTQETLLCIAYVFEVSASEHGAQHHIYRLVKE
# How it was run: as §1
# TEAD3 YAP50-100 = TEAD3 YAP50-100 (Homo sapiens, UniProt Q99594); assay: TEAD3-YAP HTRF (TR-FRET) protein-protein interaction assay; conditions: TEAD3, YAP peptide 50-100, HTRF; for pEC50: read-out: TEAD3 YAP50-100 HTRF combined: EC50
# TEAD3 YAP50-100, sequence (Q99594 173-435 limits assumed): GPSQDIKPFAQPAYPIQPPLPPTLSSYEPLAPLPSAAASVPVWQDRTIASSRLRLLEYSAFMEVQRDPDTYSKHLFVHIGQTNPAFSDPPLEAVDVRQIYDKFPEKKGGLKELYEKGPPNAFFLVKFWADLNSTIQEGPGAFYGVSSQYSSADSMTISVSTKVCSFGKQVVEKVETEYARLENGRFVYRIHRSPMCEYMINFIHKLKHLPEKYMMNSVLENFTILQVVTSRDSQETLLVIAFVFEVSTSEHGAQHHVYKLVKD
# How it was run: as §1
# TEAD4 YAP50-100 = TEAD4 YAP50-100 (Homo sapiens, UniProt Q15561); assay: TEAD4-YAP HTRF (TR-FRET) protein-protein interaction assay; conditions: TEAD4, YAP peptide 50-100, HTRF; for pEC50: read-out: TEAD4 YAP50-100 HTRF combined: EC50
# TEAD4 YAP50-100, sequence (Q15561 217-434 limits assumed): as the sequence (Q15561 217-434 limits assumed) above
# How it was run: as §1
# TEAD2 YAP50-100 = TEAD2 YAP50-100 (Homo sapiens, UniProt Q15562); assay: TEAD2-YAP HTRF (TR-FRET) protein-protein interaction assay; conditions: TEAD2, YAP peptide 50-100, HTRF; for pEC50: read-out: TEAD2 YAP50-100 HTRF combined: EC50
# TEAD2 YAP50-100, sequence (Q15562 217-447): as the sequence (Q15562 217-447) above
# How it was run: as §1
# [3] = target: TEAD1 TAZ (amino acids 13-57) (Homo sapiens, UniProt P28347); assay: TEAD1-TAZ HTRF (TR-FRET) protein-protein interaction assay; conditions: for TEAD1 TAZ HTRF combined: Max % Inhibition: TEAD1, TAZ peptide; for pEC50: TEAD1-TAZ HTRF, TR-FRET 665 nm/615 nm, read-out: TEAD1 TAZ HTRF combined: EC50
# TEAD1 TAZ (amino acids 13-57), sequence (P28347 167-426 limits assumed): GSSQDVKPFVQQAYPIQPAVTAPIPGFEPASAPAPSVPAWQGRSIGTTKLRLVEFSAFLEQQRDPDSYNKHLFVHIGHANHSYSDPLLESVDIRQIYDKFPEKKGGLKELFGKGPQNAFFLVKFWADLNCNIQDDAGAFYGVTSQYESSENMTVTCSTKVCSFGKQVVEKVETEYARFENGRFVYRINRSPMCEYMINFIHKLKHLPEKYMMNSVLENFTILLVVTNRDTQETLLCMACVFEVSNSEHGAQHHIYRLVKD
# How it was run: as §1
# [4] = target: TEAD3 TAZ (amino acids 13-57) (Homo sapiens, UniProt Q99594); assay: TEAD3-TAZ HTRF (TR-FRET) protein-protein interaction assay; conditions: for TEAD3 TAZ HTRF combined: Max % Inhibition: TEAD3, TAZ peptide; for pEC50: TEAD3-TAZ HTRF, TR-FRET 665 nm/615 nm, read-out: TEAD3 TAZ HTRF combined: EC50
# TEAD3 TAZ (amino acids 13-57), sequence (Q99594 173-435 limits assumed): as the sequence (Q99594 173-435 limits assumed) above
# How it was run: as §1
# TEAD1 YAP50-100 = TEAD1 YAP50-100 (Homo sapiens, UniProt P28347); assay: TEAD1-YAP HTRF (TR-FRET) protein-protein interaction assay; conditions: TEAD1, YAP peptide 50-100, HTRF; for pEC50: read-out: TEAD1 YAP50-100 HTRF combined: EC50
# TEAD1 YAP50-100, sequence (P28347 167-426 limits assumed): as the sequence (P28347 167-426 limits assumed) above
# How it was run: as §1
TEAD2 TAZ HTRF combined: Max % Inhibition [1] [%],pEC50 [1],TEAD4 TAZ HTRF combined: Max % Inhibition [2] [%],pEC50 [2],TEAD3 YAP50-100 HTRF combined: Max % Inhibition (TEAD3 YAP50-100) [%],pEC50 (TEAD3 YAP50-100),TEAD4 YAP50-100 HTRF combined: Max % Inhibition (TEAD4 YAP50-100) [%],pEC50 (TEAD4 YAP50-100),TEAD2 YAP50-100 HTRF combined: Max % Inhibition (TEAD2 YAP50-100) [%],pEC50 (TEAD2 YAP50-100),TEAD1 TAZ HTRF combined: Max % Inhibition [3] [%],pEC50 [3],TEAD3 TAZ HTRF combined: Max % Inhibition [4] [%],pEC50 [4],TEAD1 YAP50-100 HTRF combined: Max % Inhibition (TEAD1 YAP50-100) [%],pEC50 (TEAD1 YAP50-100),Structure (SMILES)
64.5,8.00,36.0,6.82,69.0,7.15,48.5,6.70,64.0,8.00,59.0,7.30,59.0,7.10,69.0,7.40,"CN(C)C(=O)c1nn2c(=O)cc(-c3ccc(C4CCCCC4)c(F)c3)[nH]c2c1C(=O)N1CC(CF)C1 [Compound 4, 5-(4-Cyclohexyl-3-fluorophenyl)-3-(3-(fluoromethyl)azetidine-1-carbonyl)-N,N-dimethyl-7-oxo-4,7-dihydropyrazolo[1,5-a]pyrimidine-2-carboxamide]"
78.5,8.00,41.0,6.77,75.5,6.89,56.0,6.60,83.0,8.00,62.0,7.15,66.5,6.85,73.0,7.10,"C[C@H]1[C@@H](CF)CN1C(=O)c1c(C(=O)N(C)C)nn2c(=O)cc(-c3ccc(C4CCCCC4)cc3)[nH]c12 [Compound 5, 5-(4-Cyclohexylphenyl)-3-((2S,3S)-3-(fluoromethyl)-2-methylazetidine-1-carbonyl)-N,N-dimethyl-7-oxo-4,7-dihydropyrazolo[1,5-a]pyrimidine-2-carboxamide]"
67.5,6.15,14.0,4.45,71.5,5.31,17.0,4.71,69.5,6.15,70.5,6.28,64.5,5.22,73.0,6.39,"C[C@@H]1[C@H](CF)CN1C(=O)c1c(C(=O)N(C)C)nn2c(=O)cc(-c3ccc(C4CCCCC4)cc3)[nH]c12 [Compound 6, 5-(4-Cyclohexylphenyl)-3-((2R,3R)-3-(fluoromethyl)-2-methylazetidine-1-carbonyl)-N,N-dimethyl-7-oxo-4,7-dihydropyrazolo[1,5-a]pyrimidine-2-carboxamide]"
67.0,7.52,50.0,6.80,71.0,6.46,54.0,6.59,61.0,7.40,74.0,6.70,61.0,6.49,78.0,6.70,"O=C(c1c(-c2nccnc2C(F)(F)F)nn2c(=O)cc(-c3ccc(C4CCCCC4)cc3)[nH]c12)N1CC(CF)C1 [Compound 7, 5-(4-Cyclohexylphenyl)-3-(3-(fluoromethyl)azetidine-1-carbonyl)-2-(3-(trifluoromethyl)pyrazin-2-yl)pyrazolo[1,5-a]pyrimidin-7(4H)-one]"
54.0,7.70,44.5,6.43,69.5,6.96,45.5,6.33,51.0,7.70,71.0,6.96,61.0,6.92,77.0,7.10,"N#Cc1nccnc1-c1nn2c(=O)cc(-c3ccc(C4CCCCC4)cc3)[nH]c2c1C(=O)N1CC(CF)C1 [Compound 8, 3-(5-(4-Cyclohexylphenyl)-3-(3-(fluoromethyl)azetidine-1-carbonyl)-7-oxo-4,7-dihydropyrazolo[1,5-a]pyimidin-2-yl)pyrazine-2-carbonitrile]"
63.0,8.00,56.0,7.52,62.0,7.10,52.0,7.52,62.0,8.00,69.5,7.40,52.5,7.05,71.0,7.52,"Cc1ccnc(-c2nn3c(=O)cc(-c4ccc(C5CCCCC5)cc4)[nH]c3c2C(=O)N2CC(CF)C2)n1 [Compound 9, 5-(4-Cyclohexylphenyl)-3-(3-(fluoromethyl)azetidine-1-carbonyl)-2-(4-methylpyrimidin-2-yl)pyrazolo[1,5-a]pyrimidin-7(4H)-one]"
65.0,8.00,62.0,6.27,70.5,6.92,60.5,6.17,67.0,8.00,72.0,7.22,61.5,6.85,77.0,7.22,"CC(C)c1ccnc(-c2nn3c(=O)cc(-c4ccc(C5CCCCC5)cc4)[nH]c3c2C(=O)N2CC(CF)C2)n1 [Compound 10, 5-(4-Cyclohexylphenyl)-3-(3-(fluoromethyl)azetidine-1-carbonyl)-2-(4-isopropylpyrimidin-2-yl)pyrazolo[1,5-a]pyrimidin-7(4H)-one]"
63.0,7.70,48.5,6.07,68.5,6.92,48.0,5.98,63.5,7.70,69.0,7.15,61.0,6.92,74.0,7.15,"O=C(c1c(-c2nccc(C(F)(F)F)n2)nn2c(=O)cc(-c3ccc(C4CCCCC4)cc3)[nH]c12)N1CC(CF)C1 [Compound 11, 5-(4-Cyclohexylphenyl)-3-(3-(fluoromethyl)azetidine-1-carbonyl)-2-(4-(trifluoromethyl)pyrimidin-2-yl)pyrazolo[1,5-a]pyrimidin-7(4H)-one]"
64.5,7.70,58.0,6.74,66.0,6.72,55.0,6.70,69.0,7.70,67.5,6.96,56.0,6.62,72.0,6.85,"CCc1ccnc(-c2nn3c(=O)cc(-c4ccc(C5CCCCC5)cc4)[nH]c3c2C(=O)N2CC(CF)C2)n1 [Compound 12, 5-(4-Cyclohexylphenyl)-2-(4-ethylpyrimidin-2-yl)-3-(3-(fluoromethyl)azetidine-1-carbonyl)pyrazolo[1,5-a]pyrimidin-7(4H)-one]"
